Assay results reported in patent publication US5858684A, “Method of screening calcium receptor-active molecules” (priority 1995, dated 1999).
Entries after “also recorded” stand apart in the source; their conditions may differ.

How the values were obtained:
Type in all cases: cell-based
[1] = target: T1, bovine parathyroid cell calcium receptor (BoPCaR 1) (Bos taurus, UniProt P35384); assay: Cl- current in Xenopus oocytes expressing BoPCaR 1; details: for Cl- current response in the absence of extracellular Ca2+: no extracellular Ca2+
T1 construct: Xenopus oocytes were injected with BoPCaR 1, the 5.3 Kb cDNA encoding a bovine parathyroid cell calcium receptor; expressed in transfected cells; host or cells: Xenopus laevis oocytes injected with cRNA/cDNA of BoPCaR 1
T1 sequence (P35384 20-1085): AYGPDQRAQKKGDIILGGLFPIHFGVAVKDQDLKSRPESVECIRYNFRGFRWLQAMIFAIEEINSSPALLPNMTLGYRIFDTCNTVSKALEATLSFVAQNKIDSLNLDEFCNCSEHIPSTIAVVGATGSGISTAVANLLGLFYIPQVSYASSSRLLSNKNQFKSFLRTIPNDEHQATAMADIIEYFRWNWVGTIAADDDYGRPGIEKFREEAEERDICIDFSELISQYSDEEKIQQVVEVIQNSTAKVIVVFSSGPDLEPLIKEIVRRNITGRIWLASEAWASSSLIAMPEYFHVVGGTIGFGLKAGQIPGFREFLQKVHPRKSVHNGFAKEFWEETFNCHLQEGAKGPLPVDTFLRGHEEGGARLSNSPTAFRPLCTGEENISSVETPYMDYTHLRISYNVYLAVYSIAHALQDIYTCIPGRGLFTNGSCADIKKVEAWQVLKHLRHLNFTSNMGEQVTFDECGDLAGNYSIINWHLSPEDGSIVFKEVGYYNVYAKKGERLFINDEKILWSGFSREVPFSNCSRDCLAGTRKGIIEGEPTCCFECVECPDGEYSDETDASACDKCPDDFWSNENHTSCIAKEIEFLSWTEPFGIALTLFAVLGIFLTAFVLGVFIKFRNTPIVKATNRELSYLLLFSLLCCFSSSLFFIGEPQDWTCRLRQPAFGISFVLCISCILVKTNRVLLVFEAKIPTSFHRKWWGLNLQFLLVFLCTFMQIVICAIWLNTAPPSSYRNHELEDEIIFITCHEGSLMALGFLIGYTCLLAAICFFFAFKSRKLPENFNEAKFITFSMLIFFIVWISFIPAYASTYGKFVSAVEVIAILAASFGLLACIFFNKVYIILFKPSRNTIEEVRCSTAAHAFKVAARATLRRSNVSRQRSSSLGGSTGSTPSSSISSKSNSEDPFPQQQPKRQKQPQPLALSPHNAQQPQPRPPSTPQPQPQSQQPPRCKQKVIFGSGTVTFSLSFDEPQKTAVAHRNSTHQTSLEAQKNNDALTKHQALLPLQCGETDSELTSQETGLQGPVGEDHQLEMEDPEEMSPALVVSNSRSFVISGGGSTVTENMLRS
Experimental: Following incubation, an oocyte was placed into a 100-μl plastic chamber and superfused with MBS at a flow rate of 0.5 ml/min using a peristaltic pump. Test molecules or inorganic polycations were added by rapidly moving the tubing into different buffers. Recording and current-passing electrodes were constructed from thin-wall capillary tubing pulled to a resistance of 1-3 Mohms and filled with 3M KCl. […] Currents were recorded directly onto a strip chart recorder.
The techniques used to clone the parathyroid calcium receptor are briefly described in this example; a more complete description of the techniques is provided in preceding sections, which describe techniques which may be used to clone additional forms of the Ca^2+ -receptor from other cell types. Poly(A^+)-enriched mRNA was initially prepared from bovine parathyroid glands by extracting with guanidinium thiocyanate, centrifugation through CsCl and oligo(dT) cellulose chromatography. […] No such currents were elicited in control eggs injected with water.
These responses are mediated by the following series of biochemical events:
Xenopus oocytes were injected with BoPCaR 1, the 5.3 Kb cDNA encoding a bovine parathyroid cell calcium receptor as described in Example 25. After two to three days, Cl^- currents were examined in the oocytes using a two-electrode voltage clamp.
Xenopus oocytes were injected with BoPCaR 1 as described in Example 25. After two to three days, Cl^- currents were examined in the oocytes using two electrode voltage clamp.

C-cell calcium receptor [2] = target: T2, C-cell calcium receptor (Rattus norvegicus, UniProt P48442); assay: increase in [Ca2+]i in C-cell line 44-2; details: 1 mM extracellular Ca2+
T2 sequence (P48442 20-1079): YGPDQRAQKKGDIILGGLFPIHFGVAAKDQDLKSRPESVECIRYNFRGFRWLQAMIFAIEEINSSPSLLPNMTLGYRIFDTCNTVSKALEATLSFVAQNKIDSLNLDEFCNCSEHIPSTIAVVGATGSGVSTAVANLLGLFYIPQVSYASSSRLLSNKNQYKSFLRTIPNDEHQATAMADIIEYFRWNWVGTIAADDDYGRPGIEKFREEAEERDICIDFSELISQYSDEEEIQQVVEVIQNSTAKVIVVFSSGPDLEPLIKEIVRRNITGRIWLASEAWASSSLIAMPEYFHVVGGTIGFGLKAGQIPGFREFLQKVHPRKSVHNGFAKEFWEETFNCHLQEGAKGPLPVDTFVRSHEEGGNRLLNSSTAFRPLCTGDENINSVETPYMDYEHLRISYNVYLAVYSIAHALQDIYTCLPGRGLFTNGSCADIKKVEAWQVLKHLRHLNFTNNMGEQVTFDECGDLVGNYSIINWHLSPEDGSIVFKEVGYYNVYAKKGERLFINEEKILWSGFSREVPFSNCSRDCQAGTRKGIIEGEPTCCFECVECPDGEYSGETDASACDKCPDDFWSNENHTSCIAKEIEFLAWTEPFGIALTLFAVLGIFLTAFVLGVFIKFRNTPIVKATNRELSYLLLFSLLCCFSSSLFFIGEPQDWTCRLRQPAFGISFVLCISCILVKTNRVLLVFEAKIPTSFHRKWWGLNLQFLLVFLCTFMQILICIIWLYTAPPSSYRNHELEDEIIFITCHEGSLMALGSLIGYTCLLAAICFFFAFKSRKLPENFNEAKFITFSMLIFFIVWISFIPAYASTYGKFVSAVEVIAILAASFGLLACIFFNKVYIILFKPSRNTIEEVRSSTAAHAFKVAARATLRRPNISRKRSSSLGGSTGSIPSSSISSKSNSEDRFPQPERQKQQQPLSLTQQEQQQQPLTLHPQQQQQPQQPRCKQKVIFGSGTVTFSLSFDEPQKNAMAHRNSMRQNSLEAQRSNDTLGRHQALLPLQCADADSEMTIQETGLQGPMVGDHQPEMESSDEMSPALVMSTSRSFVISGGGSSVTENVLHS
From the text: C-cells appear to express a calcium receptor that is structurally similar to that present on parathyroid cells (see Example 31). […] Thus, compounds in this structural series appear to activate the C-cell calcium receptor.

C-cell calcium receptor [3] = target: T2, C-cell calcium receptor; set-up: Neoplastic C-cells derived from a rat medullary thyroid carcinoma (rMTC 6-23); host or cells: rMTC 6-23
From the text: To assess the effects of molecular polycations on C-cells, a neoplastic cell line, derived from a rat medullary thyroid carcinoma (rMTC 6-23 cells) was used.

[4] = rMTC 6-23 cells, fura-2, inactive = no increase in cytosolic Ca2+ at 1-5 mM

Row | Structure (SMILES) | potentiation of response to submaximal extracellular Ca2+ [1] | increase in [Ca2+]i in 44-2 C-cells (C-cell calcium receptor [2]) | Cl- current ([1]; 1 mM extracellular Ca2+) | Cl- current response in the absence of extracellular Ca2+ [1] | transient increase in [Ca2+]i (C-cell calcium receptor [3]; 10 μM, 0.5 mM [Ca2+]) | EC50 (C-cell calcium receptor [3]; [4]) [nM] | concentrations eliciting increases in Cl- current [1] [µM] | large inward currents: effective concentration ([1]; cRNA-injected oocytes) [µM] | effect on basal [Ca2+]i (C-cell calcium receptor [3]) | EC50 C-CELL (Table 6) (C-cell calcium receptor [3]; [4])
1 | COc1cccc([C@@H](C)NCCCc2ccccc2)c1 (single isomer, unassigned) [NPS R-467] | potentiate the response | concentration-dependent increase | – | – | – | – | – | – | – | –
2 | NCCCNCCCCNCCCNCCCNCCCNC(=O)Cc1c[nH]c2ccccc12 [NPS 019] | – | – | oscillatory increases | persisted | transient increase | – | – | – | – | –
3 | COc1cccc([C@@H](C)NCCCc2ccccc2Cl)c1 [NPS R-568, (R)-(+)-N-[3-(2-chlorophenyl)propyl]-amethyl-α-3-methoxybenzylamine] | potentiate the response; also recorded: potentiated the responses to submaximal concentrations | concentration-dependent increase | – | abolished | – | 1900 | – | – | – | –
4 | NC[C@@H]1O[C@H](O[C@H]2[C@@H](O)[C@H](O[C@@H]3[C@@H](O)[C@H](N)C[C@H](N)[C@H]3O[C@H]3O[C@H](CN)[C@@H](O)[C@H](O)[C@H]3N)O[C@@H]2CO)[C@H](N)[C@@H](O)[C@@H]1O [Neomycin] | – | – | – | persists | – | – | 20 to 100 | 200 | fails to affect basal or evoked increases; also recorded: without effect on basal | inactive
